From patent US20100172988A1, “SUSTAINED RELEASE PREPARATION AND METHOD FOR PRODUCTION THEREOF” (KISSEI PHARMACEUTICAL CO., LTD., priority 2006, published 2010)

Tests used:
[1] = Decomposition of compound (I) on adding a basic ingredient; format: physicochemical; settings: basic ingredient added to compound (I)
[2] = pH dependence of the dissolution rate of compound (I); format: physicochemical; settings: compared with approximately pH 1.2 (gastric juice) and approximately pH 6.8 (intestinal juice)

SMILES: CCOC(=O)COc1cc(C)c(CCN[C@@H](C)[C@H](O)c2ccc(O)cc2)cc1C.Cl [compound (I), Ethyl (−)-2-[4-[2-[[(1S,2R)-2-hydroxy-2-(4-hydroxy-phenyl)-1-methylethyl]amino]ethyl]-2,5-dimethylphenoxy]-acetate hydrochloride]
- decomposition of compound (I) [1]: decomposition of compound (I) itself was accelerated
- pH of the highest dissolution rate of the active ingredient [2]: highest dissolution rate at approximately pH 4
